In patent US20100076022A1, “NOVEL POLYMORPHS OF RIMONABANT” (HETERO DRUGS LIMITED, priority 2006, published 2010):

Assays:
[1] = stability of the solid form over time; format: physicochemical; settings: test conditions not given
[2] = dissolution rate of the solid form; format: physicochemical; settings: amorphous form compared with crystalline form; test conditions not given

SMILES	stability [1]	dissolution rate [2]
Cc1c(C(=O)NN2CCCCC2)nn(-c2ccc(Cl)cc2Cl)c1-c1ccc(Cl)cc1.O [crystalline rimonabant hydrate]	stable over time	–
Cc1c(C(=O)NN2CCCCC2)nn(-c2ccc(Cl)cc2Cl)c1-c1ccc(Cl)cc1 [amorphous rimonabant form]	highly stable	better dissolution rate
